Test results: the supplement of paper PMC10307832

Legend:
Experiment in all cases: relative viability (nuclei count vs DMSO), 5 days (fraction); higher = more cells survive
NCI-H2087 = system: NCI-H2087
How it was run: (§1)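 Nuclei were stained with Hoechst during a one-step fixation (final 0.05% Triton X-100, 1% formaldehyde, 1 ug/ml Hoechst) carried out 5 days after dosing, then counted on 4× images. The cells, lung cancer lines in 1536-well plates, had been dosed by pin tool the day after seeding with one drug alone or a fixed anchor-drug dose plus five library-drug doses (not always all listed) in √10 steps. Relative viability is the nuclei count in treated wells divided by that in vehicle wells, and each value is the median of duplicate plates.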

COR-L 105 = system: COR-L 105
How it was run: as §1

201T = system: 201T
How it was run: as §1

NCI-H1437 = system: NCI-H1437
How it was run: as §1

NCI-H2170 = system: NCI-H2170
How it was run: as §1

NCI-H647 = system: NCI-H647
How it was run: as §1

HCC-827 = system: HCC-827
How it was run: as §1

NCI-H1975 = system: NCI-H1975
How it was run: as §1

SW 1573 = system: SW 1573
How it was run: as §1

LOU-NH91 = system: LOU-NH91
How it was run: as §1

NCI-H2342 = system: NCI-H2342
How it was run: as §1

EPLC-272H = system: EPLC-272H
How it was run: as §1

PC-3 [JPC-3] = system: PC-3 [JPC-3]
How it was run: as §1

H3255 = system: H3255
How it was run: as §1

HCC-44 = system: HCC-44
How it was run: as §1

LU99A = system: LU99A
How it was run: as §1

EKVX = system: EKVX
How it was run: as §1

NCI-H1666 = system: NCI-H1666
How it was run: as §1

NCI-H2085 = system: NCI-H2085
How it was run: as §1

NCI-H650 = system: NCI-H650
How it was run: as §1

BEN = system: BEN
How it was run: as §1

LCLC-97TM1 = system: LCLC-97TM1
How it was run: as §1

SMILES: Nc1ccn([C@@H]2O[C@H](CO)[C@@H](O)[C@@H]2O)c(=O)n1 [Cytarabine] + CCNC(=O)c1noc(-c2cc(C(C)C)c(O)cc2O)c1-c1ccc(CN2CCOCC2)cc1 [Luminespib] (partner 0.01 µM)
- relative viability (NCI-H2087; first compound 0.005 µM): 0.151
- relative viability (NCI-H2087; first compound 0.01581 µM): 0.134
- relative viability (NCI-H2087; first compound 0.05 µM): 0.169
- relative viability (NCI-H2087; first compound 0.1581 µM): 0.151
- relative viability (NCI-H2087; first compound 0.5 µM): 0.134
- relative viability (COR-L 105; first compound 0.005 µM): 0.783
- relative viability (COR-L 105; first compound 0.01581 µM): 0.667
- relative viability (COR-L 105; first compound 0.05 µM): 0.739
- relative viability (COR-L 105; first compound 0.1581 µM): 0.405
- relative viability (COR-L 105; first compound 0.5 µM): 0.278
- relative viability (201T; first compound 0.005 µM): 1.09
- relative viability (201T; first compound 0.01581 µM): 1.12
- relative viability (201T; first compound 0.05 µM): 1.14
- relative viability (201T; first compound 0.1581 µM): 0.982
- relative viability (201T; first compound 0.5 µM): 0.974
- relative viability (NCI-H1437; first compound 0.005 µM): 0.86
- relative viability (NCI-H1437; first compound 0.01581 µM): 0.852
- relative viability (NCI-H1437; first compound 0.05 µM): 0.571
- relative viability (NCI-H1437; first compound 0.1581 µM): 0.301
- relative viability (NCI-H1437; first compound 0.5 µM): 0.23
- relative viability (NCI-H2170; first compound 0.005 µM): 0.761
- relative viability (NCI-H2170; first compound 0.01581 µM): 0.431
- relative viability (NCI-H2170; first compound 0.05 µM): 0.248
- relative viability (NCI-H2170; first compound 0.1581 µM): 0.23
- relative viability (NCI-H2170; first compound 0.5 µM): 0.158
- relative viability (NCI-H647; first compound 0.005 µM): 0.146
- relative viability (NCI-H647; first compound 0.01581 µM): 0.111
- relative viability (NCI-H647; first compound 0.05 µM): 0.112
- relative viability (NCI-H647; first compound 0.1581 µM): 0.0665
- relative viability (NCI-H647; first compound 0.5 µM): 0.0757
- relative viability (HCC-827; first compound 0.005 µM): 0.591
- relative viability (HCC-827; first compound 0.01581 µM): 0.396
- relative viability (HCC-827; first compound 0.05 µM): 0.336
- relative viability (HCC-827; first compound 0.1581 µM): 0.154
- relative viability (HCC-827; first compound 0.5 µM): 0.144
- relative viability (NCI-H1975; first compound 0.005 µM): 0.536
- relative viability (NCI-H1975; first compound 0.01581 µM): 0.316
- relative viability (NCI-H1975; first compound 0.05 µM): 0.193
- relative viability (NCI-H1975; first compound 0.1581 µM): 0.209
- relative viability (NCI-H1975; first compound 0.5 µM): 0.171
- relative viability (SW 1573; first compound 0.005 µM): 0.375
- relative viability (SW 1573; first compound 0.01581 µM): 0.228
- relative viability (SW 1573; first compound 0.05 µM): 0.285
- relative viability (SW 1573; first compound 0.1581 µM): 0.164
- relative viability (SW 1573; first compound 0.5 µM): 0.0905
- relative viability (LOU-NH91; first compound 0.005 µM): 0.362
- relative viability (LOU-NH91; first compound 0.01581 µM): 0.361
- relative viability (LOU-NH91; first compound 0.05 µM): 0.321
- relative viability (LOU-NH91; first compound 0.1581 µM): 0.316
- relative viability (LOU-NH91; first compound 0.5 µM): 0.317
- relative viability (NCI-H2342; first compound 0.005 µM): 0.597
- relative viability (NCI-H2342; first compound 0.01581 µM): 0.723
- relative viability (NCI-H2342; first compound 0.05 µM): 0.642
- relative viability (NCI-H2342; first compound 0.1581 µM): 0.462
- relative viability (NCI-H2342; first compound 0.5 µM): 0.444
- relative viability (EPLC-272H; first compound 0.005 µM): 0.433
- relative viability (EPLC-272H; first compound 0.01581 µM): 0.241
- relative viability (EPLC-272H; first compound 0.05 µM): 0.194
- relative viability (EPLC-272H; first compound 0.1581 µM): 0.228
- relative viability (EPLC-272H; first compound 0.5 µM): 0.243
- relative viability (PC-3 [JPC-3]; first compound 0.005 µM): 0.754
- relative viability (PC-3 [JPC-3]; first compound 0.01581 µM): 0.73
- relative viability (PC-3 [JPC-3]; first compound 0.05 µM): 0.782
- relative viability (PC-3 [JPC-3]; first compound 0.1581 µM): 0.453
- relative viability (PC-3 [JPC-3]; first compound 0.5 µM): 0.551
- relative viability (H3255; first compound 0.005 µM): 0.98
- relative viability (H3255; first compound 0.01581 µM): 0.763
- relative viability (H3255; first compound 0.05 µM): 0.69
- relative viability (H3255; first compound 0.1581 µM): 0.662
- relative viability (H3255; first compound 0.5 µM): 0.554
- relative viability (HCC-44; first compound 0.005 µM): 0.949
- relative viability (HCC-44; first compound 0.01581 µM): 1.05
- relative viability (HCC-44; first compound 0.05 µM): 0.403
- relative viability (HCC-44; first compound 0.1581 µM): 0.257
- relative viability (HCC-44; first compound 0.5 µM): 0.185
- relative viability (LU99A; first compound 0.005 µM): 0.209
- relative viability (LU99A; first compound 0.01581 µM): 0.199
- relative viability (LU99A; first compound 0.05 µM): 0.217
- relative viability (LU99A; first compound 0.1581 µM): 0.167
- relative viability (LU99A; first compound 0.5 µM): 0.201
- relative viability (EKVX; first compound 0.005 µM): 0.918
- relative viability (EKVX; first compound 0.01581 µM): 0.743
- relative viability (EKVX; first compound 0.05 µM): 0.736
- relative viability (EKVX; first compound 0.1581 µM): 0.287
- relative viability (EKVX; first compound 0.5 µM): 0.186
- relative viability (NCI-H1666; first compound 0.005 µM): 1.01
- relative viability (NCI-H1666; first compound 0.01581 µM): 0.94
- relative viability (NCI-H1666; first compound 0.05 µM): 0.675
- relative viability (NCI-H1666; first compound 0.1581 µM): 0.539
- relative viability (NCI-H1666; first compound 0.5 µM): 0.579
- relative viability (NCI-H2085; first compound 0.005 µM): 0.426
- relative viability (NCI-H2085; first compound 0.01581 µM): 0.459
- relative viability (NCI-H2085; first compound 0.05 µM): 0.455
- relative viability (NCI-H2085; first compound 0.1581 µM): 0.415
- relative viability (NCI-H2085; first compound 0.5 µM): 0.339
- relative viability (NCI-H650; first compound 0.005 µM): 0.606
- relative viability (NCI-H650; first compound 0.01581 µM): 0.485
- relative viability (NCI-H650; first compound 0.05 µM): 0.253
- relative viability (NCI-H650; first compound 0.1581 µM): 0.187
- relative viability (NCI-H650; first compound 0.5 µM): 0.17
- relative viability (BEN; first compound 0.005 µM): 0.178
- relative viability (BEN; first compound 0.01581 µM): 0.324
- relative viability (BEN; first compound 0.05 µM): 0.247
- relative viability (BEN; first compound 0.1581 µM): 0.178
- relative viability (BEN; first compound 0.5 µM): 0.122
- relative viability (LCLC-97TM1; first compound 0.005 µM): 0.742
- relative viability (LCLC-97TM1; first compound 0.01581 µM): 0.69
- relative viability (LCLC-97TM1; first compound 0.05 µM): 0.709
- relative viability (LCLC-97TM1; first compound 0.1581 µM): 0.318
- relative viability (LCLC-97TM1; first compound 0.5 µM): 0.344
